Reference: patent US6506768B2, “Tetrahydro γ-carbolines” (Janssen Pharmaceutica N.V., priority 1997, dated 2003)

Experiments:
[1] = biological target: T1, 5HT2 receptors (Rattus norvegicus, UniProt P14842); assay: 5HT2 binding in rat frontal cortex (radioligand binding, [3H]ketanserin); details: rat frontal cortex membrane fraction; 1 nM [3H]ketanserin; pIC50 = −log IC50, IC50 in M
T1 construct: 5HT2 receptors were measured in a rat frontal cortex membrane fraction; from tissue; host or cells: Wistar rat frontal cortex membrane fraction
Procedure: (§1) 5HT2 receptors were measured by radioligand binding studies either in homogenates from rat brains or in a membranes fraction prepared from L929sA cells (mouse fibro carcinoma cells), stably transfected with human 5HT2A receptor cDNA.
5HT2 Binding in Rat Frontal Cortex
5HT2 receptors were measured in a rat frontal cortex membrane fraction. Herefore wistar rats were killed by decapitation, brains were removed and frontal cortex was dissected. The frontal cortex was homogenized in Tris-HCL buffer 50 mM pH7.7. The homogenate was centrifuged at 23.000 g for 10 minutes. The resulting pellet was washed twice by resuspension and recentrifugation and the pellet was finally suspended in Tris-HCL buffer 50 mM pH7.7 in a dilution of 100 (vol/wet weight of tissue). 400 μl of the homogenate was incubated with 1 nM [^3H]ketanserin in a total incubation volume of 0.5 ml for 30 minutes at 37° C. The incubation was stopped by rapid filtration using a manual filtration manifold. The filters were rinsed twice with ice-cold buffer and were counted in a liquid scintillation counter. Non-specific binding was determined in the presence of 1 μM methysergide.
(§2) Counting data from assays in the presence of test compound were automatically expressed as percent of total binding measured in the absence of test compound. Therefrom, the pIC50 (−log IC50)-values (IC50=concentration in M inhibiting 50% of the specific radioligand binding or neurotransmitter uptake) were derived and are listed in Table 9 (a “-” means “not measured”).

[2] = biological target: T2, human 5HT2A receptor (Homo sapiens, UniProt P28223); assay: 5HT2A binding in L929sA cells (radioligand binding, 125I ligand); details: membranes of L929sA cells expressing human 5HT2A receptors; 0.1 nM 125I radioligand; pIC50 = −log IC50, IC50 in M
T2 construct: expressed in transfected cells; host or cells: L929sA cells (mouse fibro carcinoma cells), stably transfected, induced with m-interferon-b
Procedure: as §1
5HT2A Binding in L929sA Cells
L929sA cells expressing human 5HT2A receptors were cultured in Petri dishes in DMEM medium (Gibco cat.nr. 41965-039) enriched with 5% heat inactivated fetal calf serum and in the presence of penicillin and streptomycin sulphate. 24 h before collection, cells were induced with m-interferon-b (1000 U/ml medium). Cells were collected by scrapping and centrifugation at low speed (5 minutes at 1500 g). The cells were homogenized and centrifuged for 10 minutes at 23.000 g. The resulting pellet was diluted in Tris-HCl 50 mM pH 7.7 and stored at −70° C. On the day of the experiment, a vial was thawed and diluted in Tris-HCl buffer. 5HT2A receptors are labeled with 0.1 nM [^125I] 4-amino-N-[1-[3-(4-fluorophenoxy)propyl]-4-methyl-4-piperidinyl]-2-methoxybenzamide dihydrate. Membranes (0.2 ml) were incubated with the radioligand for 60 minutes at 37° C. in a total volume of 0.25 ml. The reaction was stopped by rapid filtration and the filter rounds were counted in an auto-gamma spectrophotometer.
as §2

T1 sequence (P14842 whole entry): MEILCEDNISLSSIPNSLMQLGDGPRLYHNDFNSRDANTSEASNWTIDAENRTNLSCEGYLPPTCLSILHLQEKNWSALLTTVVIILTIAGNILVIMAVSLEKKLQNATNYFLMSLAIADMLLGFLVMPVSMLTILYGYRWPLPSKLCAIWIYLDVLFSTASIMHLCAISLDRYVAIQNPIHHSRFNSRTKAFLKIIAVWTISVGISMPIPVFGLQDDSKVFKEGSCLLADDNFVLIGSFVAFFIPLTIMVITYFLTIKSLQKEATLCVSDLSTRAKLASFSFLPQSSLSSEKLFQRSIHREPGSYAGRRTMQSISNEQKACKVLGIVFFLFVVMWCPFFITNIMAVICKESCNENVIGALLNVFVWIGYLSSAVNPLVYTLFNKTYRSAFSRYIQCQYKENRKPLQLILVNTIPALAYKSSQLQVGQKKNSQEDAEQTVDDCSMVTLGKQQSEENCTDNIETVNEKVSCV
T2 sequence (P28223 whole entry): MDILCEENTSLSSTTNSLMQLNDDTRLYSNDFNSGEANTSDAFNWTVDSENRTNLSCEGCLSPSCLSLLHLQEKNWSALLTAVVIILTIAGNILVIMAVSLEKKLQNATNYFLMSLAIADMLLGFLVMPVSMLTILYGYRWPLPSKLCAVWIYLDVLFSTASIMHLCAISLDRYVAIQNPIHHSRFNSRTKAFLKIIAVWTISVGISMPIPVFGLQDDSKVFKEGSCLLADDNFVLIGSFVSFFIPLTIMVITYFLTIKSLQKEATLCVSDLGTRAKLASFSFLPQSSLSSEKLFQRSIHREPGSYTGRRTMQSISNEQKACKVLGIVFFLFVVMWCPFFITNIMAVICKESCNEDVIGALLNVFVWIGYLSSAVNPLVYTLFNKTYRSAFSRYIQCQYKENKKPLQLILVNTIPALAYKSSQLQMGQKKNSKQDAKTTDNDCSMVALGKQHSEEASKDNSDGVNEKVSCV

IC50 [1] [nM] | IC50 [2] [nM] | 5HT2A-binding [2] | Compound
12.6 | – | – | Cc1nc2n(c(=O)c1CCN1CCc3[nH]c4ccc(F)cc4c3C1)CCCC2 [Compound 4]
9.55 | 57.5 | – | Cc1nc2ccccn2c(=O)c1CCN1CCc2[nH]c3cc(Cl)ccc3c2C1 [Compound 9]
– | 575 | – | Cc1nc2n(c(=O)c1CCN1CCc3[nH]c4cc(Cl)ccc4c3C1)CCCS2 [Compound 11]
– | 417 | – | Cc1nc2ccc(Br)cn2c(=O)c1CCN1CCc2[nH]c3cc(Cl)ccc3c2C1 [Compound 14]
– | 126 | – | Cc1ccc2nc(C)c(CCN3CCc4[nH]c5cc(Cl)ccc5c4C3)c(=O)n2c1 [Compound 16]
– | 251 | – | Cc1nc2ccc(Cl)cn2c(=O)c1CCN1CCc2[nH]c3cc(Cl)ccc3c2C1 [Compound 17]
– | – | 5.6 | Cc1cc(C)n2c(=O)c(CCN3CCc4[nH]c5cc(Cl)ccc5c4C3)c(C)nc2c1.O=C(O)/C=C/C(=O)O [Compound 18]
1.95 | 8.51 | – | Cc1nc2n(c(=O)c1CCN1CCc3[nH]c4ccc(Cl)cc4c3C1)CCCS2 [Compound 24]
2.82 | – | – | Cc1nc2n(c(=O)c1CCN1CCc3[nH]c4ccc(Cl)cc4c3C1)CCCC2 [Compound 27]
1.23 | 7.59 | – | Cc1nc2ccccn2c(=O)c1CCN1CCc2[nH]c3ccc(Cl)cc3c2C1 [Compound 28]
1.62 | 8.32 | – | Cc1ccc2[nH]c3c(c2c1)CN(CCc1c(C)nc2sccn2c1=O)CC3 [Compound 30]
14.5 | – | – | Cc1nc2n(c(=O)c1CCN1CCc3[nH]c4ccccc4c3C1)CCS2 [Compound 41]
28.8 | 49 | – | COc1ccc2[nH]c3c(c2c1)CN(CCc1c(C)nc2n(c1=O)CCCC2)CC3 [Compound 52]
550 | – | – | Fc1ccc2[nH]c3c(c2c1)CN(CCCCNc1nc2ccccc2s1)CC3 [Compound 108, N-2-benzothiazolyl-8-fluoro-1,3,4,5,-tetrahydro-2H-pyrido[4,3-b]indole-2-butanamine]

More lines, now with the values behind:

Compound | IC50 [1] [nM] | IC50 [2] [nM] | 5HT2A-binding [2]
Cc1nc2ccccn2c(=O)c1CCN1CCc2[nH]c3ccc(F)cc3c2C1 [Compound 1] | 3.89 | 13.2 | –
Cc1nc2n(c(=O)c1CCN1CCc3[nH]c4ccc(F)cc4c3C1)CCCS2 [Compound 2, 7-[2-(8-fluoro-1,3,4,5-tetrahydro-2H-pyrido[4,3-b]indol-2-yl)ethyl]-3,4-dihydro-8-methyl-2H,6H-pyrimido[2,1-b][1,3]-thiazin-6-one] | 36.3 | – | –
Cc1nc2scc(C)n2c(=O)c1CCN1CCc2[nH]c3ccc(F)cc3c2C1 [Compound 5] | – | 3.09 | –
Cc1nc2sccn2c(=O)c1CCN1CCc2[nH]c3ccc(F)cc3c2C1 [Compound 6] | 1 | 6.46 | –
Cc1nc2sccn2c(=O)c1CCN1CCc2[nH]c3cc(Cl)ccc3c2C1 [Compound 7] | 7.59 | 22.9 | –
Cc1nc2scc(C)n2c(=O)c1CCN1CCc2[nH]c3cc(Cl)ccc3c2C1 [Compound 8] | 4.27 | 9.77 | –
Cc1nc2n(c(=O)c1CCN1CCc3[nH]c4cc(Cl)ccc4c3C1)CCCC2 [Compound 10] | 25.7 | 457 | –
Cc1nc2n(c(=O)c1CCN1CCc3[nH]c4cc(Cl)ccc4c3C1)CCS2 [Compound 12] | – | 617 | –
Cc1nc2c(C)cccn2c(=O)c1CCN1CCc2[nH]c3cc(Cl)ccc3c2C1 [Compound 13] | – | 1480 | –
Cc1nc2c(Cl)cc(C(F)(F)F)cn2c(=O)c1CCN1CCc2[nH]c3cc(Cl)ccc3c2C1 [Compound 15] | – | 10000 | –
COc1cccn2c(=O)c(CCN3CCc4[nH]c5cc(Cl)ccc5c4C3)c(C)nc12 [Compound 20, 3-[2-(7-chloro-1,3,4,5-tetrahydro-2H-pyrido[4,3-b]indol-2-yl)ethyl]-9-methoxy-2-4-H-pyrido[1,2-a]pyrimidin-4-one] | – | 316 | –
Cc1ccn2c(=O)c(CCN3CCc4[nH]c5cc(Cl)ccc5c4C3)c(C)nc2c1 [Compound 22] | – | 631 | –
Cc1nc2scc(C)n2c(=O)c1CCN1CCc2[nH]c3ccc(Cl)cc3c2C1 [Compound 23] | 1 | 2.34 | –
Cc1nc2sccn2c(=O)c1CCN1CCc2[nH]c3ccc(Cl)cc3c2C1 [Compound 25] | – | 3.31 | –
Cc1nc2n(c(=O)c1CCN1CCc3[nH]c4ccc(Cl)cc4c3C1)CCS2 [Compound 26] | – | 6.17 | –
Cc1ccc2[nH]c3c(c2c1)CN(CCc1c(C)nc2scc(C)n2c1=O)CC3 [Compound 32] | 0.398 | 4.47 | –
Cc1ccc2[nH]c3c(c2c1)CN(CCc1c(C)nc2n(c1=O)CCCS2)CC3 [Compound 33] | 4.47 | – | –
Cc1ccc2[nH]c3c(c2c1)CN(CCc1c(C)nc2n(c1=O)CCCC2)CC3 [Compound 35] | 3.72 | – | –
Cc1ccc2[nH]c3c(c2c1)CN(CCc1c(C)nc2n(c1=O)CCCC2)CC3 [Compound 36] | – | 316 | –
Cc1nc2ccccn2c(=O)c1CCN1CCc2[nH]c3ccccc3c2C1 [Compound 37] | 3.24 | 44.7 | –
Cc1nc2sccn2c(=O)c1CCN1CCc2[nH]c3ccccc3c2C1 [Compound 38] | 8.13 | 12.6 | –
Cc1nc2scc(C)n2c(=O)c1CCN1CCc2[nH]c3ccccc3c2C1 [Compound 39] | 2.63 | 5.01 | –
COc1ccc2[nH]c3c(c2c1)CN(CCc1c(C)nc2ccccn2c1=O)CC3 [Compound 53] | 17.8 | 23.4 | –
Cc1nc2n(c(=O)c1CCN1CCc3c(c4cc(F)ccc4n3-c3ccc(F)cc3)C1)CCS2 [Compound 67] | 1.82 | 4.37 | –
Cc1nc2scc(C)n2c(=O)c1CCN1CCc2c(c3cc(F)ccc3n2-c2ccc(F)cc2)C1 [Compound 68] | – | 6.61 | –
Cc1nc2ccccn2c(=O)c1CCN1CCc2c(c3ccccc3n2Cc2ccccc2)C1 [Compound 69] | 11.2 | – | –
Cc1nc2n(c(=O)c1CCN1CCc3c(c4ccccc4n3-c3ccccc3)C1)CCS2 [Compound 86] | – | 4.57 | –
Cc1nc2n(c(=O)c1CCN1CCc3c(c4ccccc4n3-c3ccccc3)C1)CCCC2 [Compound 89] | – | 6.92 | –
Cc1nc(N)n(C)c(=O)c1CCN1CCc2[nH]c3ccccc3c2C1 [Compound 100] | 5.01 | – | –
